Assay results: article PMC10825133, “Repurposing proteasome inhibitors for improved treatment of triple-negative breast cancer” (Cell Death Discovery, 2024)
Read-outs that look alike come from different tables or passages of the source.

How the values were obtained:
Test in all cases: Resazurin-based cell viability assay, monotherapy drug screen
Design in all cases: species or system human; AUC: scale not given here
HCC1806 cells = details: HCC1806; for AUC: area under the dose response curve, 24 h; for GRmax: drug efficacy at highest tested dose (<0 cytotoxic, 0 cytostatic, >0 partial growth inhibition)
Method: (§1) Eighteen pharmaceutical compounds were purchased from Selleckchem. […] The stock solutions were stored at -80°C. […] New drug plates were prepared for each drug screen.
(§2) To determine the optimal seeding density and ensure that the cells were in the exponential phase during the duration of the experiment (approx. 52h), each cell line (BT-549, CAL-148, HCC1806, HCC38, HCC70, MCF-10A, MCF-7, MDA-MB-436, MDA-MB-453, and MDA-MB-468) was seeded at different concentrations (1000 to 16000 cells) per 96-well, as previously described. Cell viability was measured daily (day 0 [plating day] to day 4) using 0.2 mg/ml resazurin solution prepared from resazurin sodium salt (Fisher Scientific) dissolved in sterile 1xPBS (ThermoFisher Scientific). Before use, the resazurin solution was brought to RT before 10 µl (10% of cell medium volume) was added to each 96-well and incubated for 4h at 37°C. The absorbance was measured with a 560 nm excitation filter and a 615 nm emission filter in a Wallac 1420 VICTOR2™ microplate reader (Perkin Elmer). The slope of the curve was used to determine the optimal seeding density, i.e., the highest seeding density with linear growth between days 1 and 3.

HCC70 cells = details: HCC70; for AUC: area under the dose response curve, 24 h; for GRmax: drug efficacy at highest tested dose (<0 cytotoxic, 0 cytostatic, >0 partial growth inhibition)
Method: as §1, §2

MDA-MB-468 cells = details: MDA-MB-468; for AUC: area under the dose response curve, 24 h; for GRmax: drug efficacy at highest tested dose (<0 cytotoxic, 0 cytostatic, >0 partial growth inhibition)
Method: as §1, §2

MCF-7 cells = details: MCF-7; for AUC: area under the dose response curve, 24 h; for GRmax: drug efficacy at highest tested dose (<0 cytotoxic, 0 cytostatic, >0 partial growth inhibition)
Method: as §1, §2

HCC38 cells = details: HCC38; for AUC: area under the dose response curve, 24 h; for GRmax: drug efficacy at highest tested dose (<0 cytotoxic, 0 cytostatic, >0 partial growth inhibition)
Method: as §1, §2

MDA-MB-453 cells = details: MDA-MB-453; for AUC: area under the dose response curve, 24 h; for GRmax: drug efficacy at highest tested dose (<0 cytotoxic, 0 cytostatic, >0 partial growth inhibition); for IC50: growth rate inhibition concentration at GR(c) = 0.5, 24 h, read-out: GR50 (the source's name)
Method: as §1, §2

MCF-10A cells = details: for AUC: area under the dose response curve, 24 h; for GRmax: drug efficacy at highest tested dose (<0 cytotoxic, 0 cytostatic, >0 partial growth inhibition)
Method: as §1, §2

MDA-MB-436 cells = details: MDA-MB-436; for AUC: area under the dose response curve, 24 h; for GRmax: drug efficacy at highest tested dose (<0 cytotoxic, 0 cytostatic, >0 partial growth inhibition)
Method: as §1, §2

BT-549 cells = details: BT-549; for AUC: area under the dose response curve, 24 h; for GRmax: drug efficacy at highest tested dose (<0 cytotoxic, 0 cytostatic, >0 partial growth inhibition)
Method: as §1, §2

[1] = 24 h drug treatment, read-out: IC50
[2] = growth rate inhibition concentration at GR(c) = 0.5, 24 h, read-out: GR50 (the source's name)

SMILES | IC50 (HCC1806 cells; [1]) | AUC (HCC1806 cells) | GRmax (HCC1806 cells) | IC50 (HCC1806 cells; [2]) | IC50 (HCC70 cells; [1]) | AUC (HCC70 cells) | GRmax (HCC70 cells) | IC50 (HCC70 cells; [2]) | IC50 (MDA-MB-468 cells; [1]) | AUC (MDA-MB-468 cells) | GRmax (MDA-MB-468 cells) | AUC (MCF-7 cells) | GRmax (MCF-7 cells) | IC50 (MCF-7 cells; [2]) | IC50 (HCC38 cells; [1]) | AUC (HCC38 cells) | GRmax (HCC38 cells) | IC50 (HCC38 cells; [2]) | AUC (MDA-MB-453 cells) | GRmax (MDA-MB-453 cells) | further results
CC[C@H](C)[C@H](NC(=O)[C@H]([C@@H](C)CC)N(C)C(C)=O)C(=O)N[C@H](C(=O)N[C@@H](CC(C)C)C(=O)[C@@]1(C)CO1)[C@@H](C)O [Epoxomicin] | 0.47 µM | 0.73 | 0.34 | 0.29 µM | 0.98 µM | 0.72 | −0.52 | 0.14 µM | 0.11 µM | 0.65 | 0.01 | 0.74 | 0.42 | 0.075 µM | 0.054 µM | 0.47 | −0.74 | 0.044 µM | 0.70 | 0.32 | IC50 (MDA-MB-468 cells; [2]): 0.051 µM; IC50 (MCF-7 cells; [1]): 1.2 µM; IC50 (MDA-MB-453 cells): 0.015 µM; IC50 (MCF-10A cells; [1]): 0.088 µM; AUC (MCF-10A cells): 0.58; GRmax (MCF-10A cells): −0.05; IC50 (MCF-10A cells; [2]): 0.095 µM; AUC (MDA-MB-436 cells): 0.77; GRmax (MDA-MB-436 cells): 0.37; IC50 (MDA-MB-436 cells; [2]): 0.32 µM; AUC (BT-549 cells): 0.73; GRmax (BT-549 cells): 0.38; IC50 (BT-549 cells; [2]): 0.13 µM
[NH2][Pt]1([NH2])[O]CC(=O)[O]1 [Nedaplatin] | 0.15 µM | 0.66 | −0.38 | 0.12 µM | 0.046 µM | 0.50 | −0.83 | 0.3 µM | 0.067 µM | 0.61 | −0.38 | 0.82 | −0.57 | 0.075 µM | 0.093 µM | 0.62 | −0.58 | 0.054 µM | 0.86 | 0.34 | IC50 (MDA-MB-453 cells): 0.41 µM; IC50 (MCF-10A cells; [1]): 0.075 µM; AUC (MCF-10A cells): 0.57; GRmax (MCF-10A cells): −0.40; IC50 (MCF-10A cells; [2]): 0.074 µM; IC50 (MDA-MB-436 cells; [1]): 0.23 µM; AUC (MDA-MB-436 cells): 0.76; GRmax (MDA-MB-436 cells): 0.22; IC50 (MDA-MB-436 cells; [2]): 0.13 µM; IC50 (BT-549 cells; [1]): 0.15 µM; AUC (BT-549 cells): 0.66; GRmax (BT-549 cells): −0.02; IC50 (BT-549 cells; [2]): 0.081 µM
